Laboratory results reported in patent US20250024871A1, “AMIDE COMPOUNDS AND THEIR USE AS FLAVOR MODIFIERS” (Firmenich Incorporated, priority 2021, published 2025).

Molecular target: T1, T1R umami taste receptor (Homo sapiens, UniProt Q7RTX0+Q7RTX1)
T1 sequence (Q7RTX1 21-841): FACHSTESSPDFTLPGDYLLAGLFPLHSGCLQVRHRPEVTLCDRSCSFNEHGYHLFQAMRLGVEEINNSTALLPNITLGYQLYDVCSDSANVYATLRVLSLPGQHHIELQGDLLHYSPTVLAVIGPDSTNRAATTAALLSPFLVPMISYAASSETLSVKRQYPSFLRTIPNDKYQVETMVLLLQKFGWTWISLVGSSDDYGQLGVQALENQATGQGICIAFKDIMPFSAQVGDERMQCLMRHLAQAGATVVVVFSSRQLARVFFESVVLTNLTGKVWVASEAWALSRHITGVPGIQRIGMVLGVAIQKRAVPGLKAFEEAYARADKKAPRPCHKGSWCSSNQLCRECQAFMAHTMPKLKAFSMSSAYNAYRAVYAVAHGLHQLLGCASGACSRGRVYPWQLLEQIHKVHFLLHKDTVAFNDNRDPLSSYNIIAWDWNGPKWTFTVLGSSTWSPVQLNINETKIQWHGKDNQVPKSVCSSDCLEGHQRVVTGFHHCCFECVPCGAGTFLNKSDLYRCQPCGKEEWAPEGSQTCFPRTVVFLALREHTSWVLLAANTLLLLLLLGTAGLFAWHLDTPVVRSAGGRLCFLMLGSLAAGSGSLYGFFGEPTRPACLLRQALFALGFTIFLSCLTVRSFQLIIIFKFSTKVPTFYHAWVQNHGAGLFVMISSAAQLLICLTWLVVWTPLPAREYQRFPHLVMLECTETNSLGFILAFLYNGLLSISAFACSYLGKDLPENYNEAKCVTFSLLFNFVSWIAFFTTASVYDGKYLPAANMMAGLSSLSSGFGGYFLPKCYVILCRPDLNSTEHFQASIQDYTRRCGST
T1 sequence (Q7RTX0 21-852): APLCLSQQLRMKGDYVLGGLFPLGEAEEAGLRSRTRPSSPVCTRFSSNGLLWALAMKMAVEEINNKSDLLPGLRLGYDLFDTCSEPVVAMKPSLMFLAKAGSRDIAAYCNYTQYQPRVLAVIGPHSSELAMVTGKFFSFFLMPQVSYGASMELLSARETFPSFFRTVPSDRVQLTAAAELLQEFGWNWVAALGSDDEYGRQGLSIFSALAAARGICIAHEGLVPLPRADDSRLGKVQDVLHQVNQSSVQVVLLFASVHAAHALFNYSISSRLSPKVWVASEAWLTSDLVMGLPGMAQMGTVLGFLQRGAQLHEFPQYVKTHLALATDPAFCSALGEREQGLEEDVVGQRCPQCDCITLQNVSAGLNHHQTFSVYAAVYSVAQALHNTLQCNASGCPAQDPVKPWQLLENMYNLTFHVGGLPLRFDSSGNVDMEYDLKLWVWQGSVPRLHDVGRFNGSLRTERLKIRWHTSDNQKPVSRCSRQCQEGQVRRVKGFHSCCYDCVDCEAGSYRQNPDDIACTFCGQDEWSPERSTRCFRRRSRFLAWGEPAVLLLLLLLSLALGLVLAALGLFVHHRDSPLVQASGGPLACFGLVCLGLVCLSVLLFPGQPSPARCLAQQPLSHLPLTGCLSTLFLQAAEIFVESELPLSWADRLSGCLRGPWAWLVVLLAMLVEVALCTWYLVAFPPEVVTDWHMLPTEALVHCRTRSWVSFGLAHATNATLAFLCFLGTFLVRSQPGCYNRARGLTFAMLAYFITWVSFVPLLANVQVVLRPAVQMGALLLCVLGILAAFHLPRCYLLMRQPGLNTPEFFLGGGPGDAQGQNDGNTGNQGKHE
Experiment: in vitro cell-based assay having cells that express the T1R umami taste receptor (enhancement of MSG)
Settings: for EC50: cells expressing T1R umami taste receptor, read-out: EC50 for enhancement of MSG binding
Protocol: Each of Compounds 101-183 was synthesized according to one of the general procedures set forth above in Examples 1. Thereafter, the compounds were tested in an in vitro cell-based assay having cells that express the T1R umami taste receptor. Dose-binding curves were recorded and the EC50 was determined for enhancement of MSG binding. Table 2 sets forth the calculated EC50 values for certain tested compounds as well as the MSG enhancement ratio at a particular concentration.

Structure (SMILES)	EC50	MSG Enh. Ratio (compound at 10 μM)	MSG Enh. Ratio (compound at 50 μM)	MSG Enh. Ratio (compound at 0.3 μM)	MSG Enh. Ratio (compound at 3 μM)
COC(=O)[C@H](Cc1ccccc1)NC(=O)c1ccc2c(c1)OCO2 [Compound 128, Methyl (benzo[d][1,3]dioxole-5-carbonyl)-L-phenylalaninate]	> 50 µM	3.7 @	–	–	–
CCOC(=O)[C@@H](NC(=O)c1ccc(OC)cc1)C(C)C [Compound 106, Ethyl (4-methoxybenzoyl)-L-valinate]	36 µM	–	3.6 @	–	–
C/C=C/C=C/C(=O)N[C@@H](CCC(=O)OCC)C(=O)OCC [Compound 182, Diethyl ((2E,4E)-hexa-2,4-dienoyl)-L-glutamate]	> 50 µM	–	3.4 @	–	–
CCOC(=O)[C@H](Cc1ccccc1)NC(=O)/C=C/c1ccccc1 [Compound 141, Ethyl cinnamoyl-L-phenylalaninate]	–	5.5 @	–	–	–
CCOC(=O)[C@H](CC(C)C)NC(=O)/C=C/c1ccc2c(c1)OCO2 [Compound 162, Ethyl (E)-(3-(benzo[d][1,3]dioxol-5-yl)acryloyl)-L-leucinate]	> 50 µM	–	3.4 @	–	–
CCOC(=O)[C@@H](NC(=O)/C=C/c1ccc(OC)cc1)C(C)C [Compound 147, Ethyl (E)-(3-(4-methoxyphenyl)acryloyl)-L-valinate]	2.24 µM	–	–	3.0 @	–
CCOC(=O)CC[C@H](NC(=O)/C=C/c1ccccc1)C(=O)OCC [Compound 140, Diethyl cinnamoyl-L-glutamate]	12 µM	5.6 @	–	–	–
C/C=C/C=C/C(=O)N[C@H](C(=O)OCC)[C@@H](C)CC [Compound 183, Ethyl ((2E,4E)-hexa-2,4-dienoyl)-L-isoleucinate]	> 50 µM	–	2.8 @	–	–
CCOC(=O)[C@@H](NC(=O)c1ccc(COC)cc1)C(C)C [Compound 110, Ethyl (4-(methoxymethyl)benzoyl)-L-valinate]	> 50 µM	–	2.7 @	–	–
C/C=C/C=C/C(=O)N[C@@H](CC(C)C)C(=O)OCC [Compound 181, Ethyl ((2E,4E)-hexa-2,4-dienoyl)-L-leucinate]	> 50 µM	–	4.5 @	–	–
CCCCc1ccc(C(=O)N[C@@H](Cc2ccccc2)C(=O)OC)nc1 [Compound 132, Methyl (5-butylpicolinoyl)-L-phenylalaninate]	> 50 µM	–	2.6 @	–	–
CCOC(=O)CC[C@H](NC(=O)c1cc(OC)cc(OC)c1)C(=O)OCC [Compound 126, Diethyl (3,5-dimethoxybenzoyl)-L-glutamate]	–	–	5.2 @	–	–
COC(=O)[C@@H](NC(=O)c1ccc(C)c(C)c1)C(C)C [Compound 117, Methyl (3,4-dimethylbenzoyl)-L-valinate]	11.1 µM	–	–	–	4.6 @
CCOC(=O)[C@@H](NC(=O)/C=C/c1ccc(OCC)cc1)C(C)C [Compound 153, Ethyl (E)-(3-(4-ethoxyphenyl)acryloyl)-L-valinate]	1 µM	–	–	7.4 @	–
CCOC(=O)CC[C@H](NC(=O)c1cn(C)c2ccccc12)C(=O)OCC [Compound 134, Diethyl (1-methyl-1H-indole-3-carbonyl)-L-glutamate]	> 50 µM	–	3.8 @	–	–
COC(=O)[C@@H](NC(=O)c1ccc2c(c1)OCO2)C(C)C [Compound 127, Methyl (benzo[d][1,3]dioxole-5-carbonyl)-L-valinate]	> 50 µM	–	3.4 @	–	–
CCOC(=O)[C@@H](CC(C)C)NC(=O)c1ccc2c(c1)OCO2 [Compound 130, Ethyl (benzo[d][1,3]dioxole-5-carbonyl)-D-leucinate]	0.5 µM	–	–	–	–
CCC/C=C/C(=O)N[C@H](C(=O)OC)[C@@H](C)CC [Compound 174, Methyl ((E)-hex-2-enoyl)-L-isoleucinate]	30 µM	3.6 @	–	–	–

Structure (SMILES)	EC50	MSG Enh. Ratio (compound at 10 μM)	MSG Enh. Ratio (compound at 50 μM)	MSG Enh. Ratio (compound at 0.3 μM)	MSG Enh. Ratio (compound at 3 μM)
CCOC(=O)[C@H](Cc1ccc(OC)cc1)NC(=O)c1ccc(C)c(C)c1 [Compound 121, Ethyl (S)-2-(3,4-dimethylbenzamido)-3-(4-methoxyphenyl)propanoate]	12 µM	7.0 @	–	–	–
CCOC(=O)[C@H](Cc1ccccc1)NC(=O)/C=C/c1ccc(OCC)cc1 [Compound 154, Ethyl (E)-(3-(4-ethoxyphenyl)acryloyl)-L-phenylalaninate]	3 µM	–	–	–	2.0 @
CCOC(=O)[C@@H](NC(=O)c1ccc(C)c(C)c1)C(C)C [Compound 118, Ethyl (3,4-dimethylbenzoyl)-L-valinate]	4.8 µM	–	–	–	7.0 @
C/C=C/C=C/C(=O)N[C@H](C(=O)OCC)C(C)C [Compound 179, Ethyl ((2E,4E)-hexa-2,4-dienoyl)-L-valinate]	> 50 µM	–	3.0 @	–	–
CCOC(=O)[C@@H](NC(=O)/C=C/c1ccc2c(c1)OCO2)[C@@H](C)CC [Compound 163, Ethyl ((E)-3-(benzo[d][1,3]dioxol-5-yl)acryloyl)-L-isoleucinate]	> 50 µM	–	2.4 @	–	–
COC(=O)[C@@H](CC(C)C)NC(=O)/C=C/c1ccc(OC)cc1 [Compound 144, Methyl (E)-(3-(4-methoxyphenyl)acryloyl)-D-leucinate]	0.1 µM	–	–	–	–
CCOC(=O)CC[C@H](NC(=O)/C=C/c1ccc(O)cc1)C(=O)OCC [Compound 164, Diethyl (E)-(3-(4-hydroxyphenyl)acryloyl)-L-glutamate]	> 50 µM	–	4.2 @	–	–
CCOC(=O)CC[C@H](NC(=O)c1ccc(C)c(C)c1)C(=O)OCC [Compound 122, Diethyl (3,4-dimethylbenzoyl)-L-glutamate]	2 µM	–	–	–	4.9 @
COC(=O)[C@H](Cc1ccccc1)NC(=O)c1ccccn1 [Compound 112, Methyl picolinoyl-L-phenylalaninate]	> 50 µM	–	2.8 @	–	–
CCOC(=O)[C@H](Cc1ccccc1)NC(=O)/C=C/c1ccc(OC)c(OC)c1 [Compound 158, Ethyl (E)-(3-(3,4-dimethoxyphenyl)acryloyl)-L-phenylalaninate]	–	4.8 @	–	–	–
COC(=O)[C@H](CC(C)C)NC(=O)/C=C/c1ccc(OC)cc1 [Compound 149, Methyl (E)-(3-(4-methoxyphenyl)acryloyl)-L-leucinate]	11 µM	–	–	–	4.5 @
CCOC(=O)[C@H](CC(C)C)NC(=O)/C=C/c1ccccc1 [Compound 135, Ethyl cinnamoyl-L-leucinate]	–	–	5.3 @	–	–
C/C=C/C(=O)N[C@@H](Cc1ccccc1)C(=O)OC [Compound 167, Methyl (E)-but-2-enoyl-L-phenylalaninate]	> 50 µM	–	2.1 @	–	–
COC(=O)[C@@H](Cc1ccccc1)NC(=O)c1ccc(C)c(C)c1 [Compound 113, Methyl (3,4-dimethylbenzoyl)-D-phenylalaninate]	0.3 µM	–	–	–	–
CCOC(=O)[C@@H](CC(C)C)NC(=O)/C=C/C(C)C [Compound 171, Ethyl (E)-(4-methylpent-2-enoyl)-D-leucinate]	3.34 µM	–	–	–	8.96 @
CCOC(=O)CC[C@H](NC(=O)c1ccc2c(c1)OCO2)C(=O)OCC [Compound 129, Diethyl (benzo[d][1,3]dioxole-5-carbonyl)-L-glutamate]	12 µM	–	–	–	7.5 @
CCOC(=O)[C@@H](NC(=O)/C=C/c1ccccc1OC)C(C)C [Compound 143, Ethyl (E)-(3-(2-methoxyphenyl)acryloyl)-L-valinate]	15 µM	4.4 @	–	–	–
